Assay results from patent US11047012B2, “Method for detecting the risk and prognosis of adult-onset Still's disease” (Taichung Veterans General Hospital, priority 2018, dated 2021).

Legend:
[1] = system: THP-1 cells; assay: poly (I:C) stimulation of THP-1 cells, miR-134 expression; format: cell-based, human; details: 24 hours after stimulation, FIG. 5B
Description: (§1) The miRNA expressions in a sample were detected using the TaqMan MicroRNA detection kit (Applied Biosystems, Thermo Fisher Scientific, USA) and QRT-PCR was performed in the StepOne Plus real-time PCR system. Small nuclear RNA (hereinafter referred to as RUN6) and synthetic cel-miR-39 (hereinafter referred to as cel-miR-39 cel-miR-39) were respectively used as an internal control gene in cells and plasma. The multiple expression of the target gene was obtained by calculating the average expression of the target gene relative to the internal control gene in the sample by comparative threshold cycle (Ct) method, and evaluated by 2^−ΔΔCt, where ΔΔCt is the (CtmiRNAsgene−CtRnu6/cel-miR-39) of the patient from which the average (CtmiRNAs gene−CtRnu6/cel-miR-39) of the internal control gene is subtracted.
(§2) Peripheral blood mononuclear cells, human monocyte cell line U937 (ATCC CRL1593, hereinafter referred to as U937 cell) and THP-1 cells (ATCC TIB-202) isolated from the subject were respectively cultured in RPMI medium 1640 (Gibco, Thermo Fisher Scientific, USA) supplemented with 10% fetal bovine serum, 1× non-essential amino acids, 100 unit/ml penicillin and 100 unit/ml streptomycin in 5% carbon dioxide at 37° C.
Further, the THP-1 cells were treated with the TLR3 ligand poly (I:C).

[2] = system: peripheral blood mononuclear cells derived from the patients with AOSD; assay: TLR ligand stimulation of peripheral blood mononuclear cells, intracellular miR-134 by QRT-PCR; format: cell-based, human
Description: as §1, §2
Peripheral blood mononuclear cells (5×10^5 cells) derived from the subjects were stimulated with different TLR ligands. Finally, the intracellular expression level of miR-134 was measured with the TaqMan MicroRNA test kit.
Following the process as described in Example 8, the intracellular expressions of miR-134 and IL-18BP mRNA in the TLR3 ligand-stimulated peripheral blood mononuclear cells derived from patients with AOSD and healthy subjects were detected. The correlation between the IL-18BP and IL-18 expressions and the miR-134 expression was analyzed.

polyriboinosinic:polyribocytidylic acid [poly(I:C)]
expression of miR-134 (highest value) [1]: 1.92±0.11 folds | miR-134 expression level in the cells ([2]; PBMC from patients with AOSD, TLR3 ligand poly(I:C) 50 μg/ml, FIG. 5A): 3.81±0.09 folds | expression level of miR-134 ([2]; TLR3 ligand-stimulated PBMC from patients with AOSD, FIG. 10A): increased | expression level of IL-18BP mRNA ([2]; TLR3 ligand-stimulated PBMC from patients with AOSD, FIG. 10B): reduced
